Reference: US20190300857A1, “UNDIFFERENTIATED STEM CELL-REMOVING AGENT, AND METHOD FOR REMOVING UNDIFFERENTIATED STEM CELLS” (KEIO UNIVERSITY, priority 2016, published 2019)

Assays:
Type in all cases: cell-based
[1] = test system: human iPS cell line (253G4); assay: Culture of human iPS cell line with Orlistat with or without palmitic acid, LIVE/DEAD Assay; conditions: Orlistat 0, 2, 6, 8 μM, 72 hours, FIGS. 13 to 14
Protocol: Orlistat (manufactured by Sigma, 04139) was added into StemFit medium (manufactured by AJINOMOTO) or mTeSR1 (manufactured by Stem Cell Technologies) so that each of a final concentration became concentrations as shown in FIG. 13 (2 μM, 6 μM, and 8 μM). Therefore a culture medium according to one embodiment of the present invention was obtained. Media obtained by adding palmitic acid (final concentration 50 μM), carnitine (final concentration 0.5 mM), and BSA (final concentration 8.3 μM) to each of the culture medium (0 μM) not containing Orlistat and the culture media containing Orlistat at the above final concentrations; and media obtained by adding only carnitine (final concentration 0.5 mM) and BSA (final concentration 8.3 μM) thereto were prepared. The human iPS cell line (253G4) was cultured for 72 hours in each of the above-mentioned media. After 72 hours of culture, live cells were detected with LIVE/DEAD Assay (L3224, manufactured by Thermo Fisher Scientific).

[2] = test system: undifferentiated stem cells expressing OCT4 in cell mixture of cardiomyocytes derived from human iPS cells and human iPS cells; assay: Culture of cell mixture of iPS-derived cardiomyocytes and iPS cells in Orlistat-containing medium, OCT4 immunostaining; conditions: Orlistat 10 μM (Orlistat(+)); 72 hours; StemFit or mTeSR1; FIGS. 7 to 8
Protocol: A cell mixture in a state in which purified and refined cardiomyocytes induced from human iPS cells and human iPS cells coexisted was prepared according to the procedure described above. In the cell mixture, immunostaining against OCT4 was performed. The cell mixture was cultured for 72 hours in StemFit medium (manufactured by AJINOMOTO) or mTeSR1 (manufactured by Stem Cell Technologies) containing Orlistat at a final concentration of 10 μM (Orlistat(+)). As a control, culture was carried out in the same manner in StemFit medium (manufactured by AJINOMOTO) or mTeSR1 (manufactured by Stem Cell Technologies) not containing Orlistat (Orlistat(−)). After culturing for 72 hours, cells expressing OCT4 were detected by immunostaining. In addition, the results of DAPI staining are also shown together. The results of three replicate tests in which the number of colonies of cells expressing Oct4 was quantified based on the results are shown in FIG. 8.

[3] = test system: Ffl14: human induced pluripotent stem cell (human iPS cell) line; assay: Culture of undifferentiated stem cell line in Orlistat-containing medium, ALP staining of living cells; conditions: Orlistat 0, 2, 4, 6, 8, 10 μM, 72 hours, StemFit or mTeSR1, FIG. 3
Protocol: (§1) Orlistat (manufactured by Sigma, 04139) was added into StemFit medium (manufactured by AJINOMOTO) or mTeSR1 (manufactured by Stem Cell Technologies) so that each of a final concentration became concentrations as shown in FIG. 3 (2 μM, 4 μM, 6 μM, 8 μM, and 10 μM). Therefore a culture medium according to one embodiment of the present invention was obtained. The following three cell lines were cultured for 72 hours in each of a culture medium not containing Orlistat (0 μM) and the culture media containing Orlistat at each of the above final concentrations. • 253G4: human induced pluripotent stem cell (human iPS cell) line • Ffl14: human induced pluripotent stem cell (human iPS cell) line • H9: human embryonic stem cell (human ES cell) line In regard to the activity of alkaline phosphatase (ALP) that the cells have, after 72 hours of culture, AP staining was performed by color development with […] (registered trademark) alkaline phosphatase staining kit (Sigma 86-R), and cells stained red were confirmed as living cells.

[4] = test system: H9: human embryonic stem cell (human ES cell) line; assay: as above; conditions: Orlistat 0, 2, 4, 6, 8, 10 μM, 72 hours, StemFit or mTeSR1, FIG. 3
Protocol: as §1

[5] = test system: 253G4: human induced pluripotent stem cell (human iPS cell) line; assay: as above; conditions: Orlistat 0, 2, 4, 6, 8, 10 μM, 72 hours, StemFit or mTeSR1, FIG. 3
Protocol: as §1

CCCCCCCCCCC[C@@H](C[C@@H]1OC(=O)[C@H]1CCCCCC)OC(=O)[C@H](CC(C)C)NC=O [Orlistat, N-formyl-L-leucine-(1S)-1-[[(2S,3S)-3-hexyl-4-oxo-2-oxetanyl]methyl]dodecyl ester]
cell death of human iPS cells (LIVE/DEAD Assay) ([1]; culture medium (BSA): only carnitine 0.5 mM and BSA 8.3 μM added): cell death of human iPS cells was induced in an Orlistat concentration-dependent manner
cell death of human iPS cells (LIVE/DEAD Assay) ([1]; culture medium (PA-BSA): palmitic acid 50 μM, carnitine 0.5 mM and BSA 8.3 μM added): cell death of human iPS cells was suppressed
residual undifferentiated stem cells expressing OCT4 [2]: no residual undifferentiated stem cells expressing OCT4 were detected
cell death of undifferentiated stem cells (ALP staining) [3]: cell death of each undifferentiated stem cell was induced in an Orlistat concentration-dependent manner
cell death of undifferentiated stem cells (ALP staining) [4]: cell death of each undifferentiated stem cell was induced in an Orlistat concentration-dependent manner
cell death of undifferentiated stem cells (ALP staining) [5]: cell death of each undifferentiated stem cell was induced in an Orlistat concentration-dependent manner
